{"source": "patent US20090281143A1", "about": "“Dose Reduction of a Cannabinoid CB1 Receptor Antagonist in the Treatment of Overweight or Obesity” (N-Gene Research Laboratories, Inc., priority 2007, published 2009)", "experiment": "Inhibition of body weight gain in high fat diet exposed mice", "conditions": "for weight gain in relation to that of the control group fed with standard laboratory chow: excess over chow control", "description": "OF-1 female mice weighing about 18-20 g at the beginning of the experiment were used in the study. […] The high fat diet consisted of palatable food that contained 50% fat. The group on standard laboratory chow was also treated with vehicle. Treatment was performed with all of the drugs, orally, at 5 ppm. The weight of the animals was measured weekly."}
{"smiles": "Cc1c(C(=O)NN2CCCCC2)nn(-c2ccc(Cl)cc2Cl)c1-c1ccc(Cl)cc1", "note": "[rimonabant, N-piperidino-5-(4-chlorophenyl)-1-(2,4-dichlorophenyl)-4-methylpyrazole-3-carboxamide]", "values": [{"measurement": "Body weight gain in g after 2 weeks", "setting": "rimonabant 2 mg/kg daily oral, after 2 weeks", "result": 10.6, "unit": "g"}, {"measurement": "Body weight gain in g after 3 weeks", "setting": "rimonabant 2 mg/kg daily oral, after 3 weeks", "result": 14.1, "unit": "g"}, {"measurement": "weight gain in relation to that of the control group fed with standard laboratory chow", "setting": "rimonabant 2 mg/kg, after 2 weeks", "result": 22, "unit": "%"}, {"measurement": "weight gain in relation to that of the control group fed with standard laboratory chow", "setting": "rimonabant 2 mg/kg, after 3 weeks", "result": 33, "unit": "%"}, {"measurement": "Body weight gain in g after 2 weeks", "setting": "rimonabant 10 mg/kg daily oral, after 2 weeks", "result": 10.2, "unit": "g"}, {"measurement": "Body weight gain in g after 3 weeks", "setting": "rimonabant 10 mg/kg daily oral, after 3 weeks", "result": 13.0, "unit": "g"}, {"measurement": "weight gain in relation to that of the control group fed with standard laboratory chow", "setting": "rimonabant 10 mg/kg, after 2 weeks", "result": 17, "unit": "%"}, {"measurement": "weight gain in relation to that of the control group fed with standard laboratory chow", "setting": "rimonabant 10 mg/kg, after 3 weeks", "result": 22.6, "unit": "%"}]}
